# Test results from ChEMBL document CHEMBL1201862, “PubChem BioAssay data set” (2004).
#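 Values below derive from 48-hour exposures of cells grown in 96-well plates, with endpoints linearly interpolated between the two concentrations bracketing the appropriate inhibition level. At the GI50, growth is halved.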 The source made the active and inactive calls. Rule as the data show it: active = GI50 up to about 1.1 µM and inactive = higher.
# Tests used:
# Assay in all cases: NCI anticancer screen, dose series, 48 h
# [1] = system: UACC-257
# [2] = system: NCI-H460
# [3] = system: SNB-75
# [4] = system: SN12C
# [5] = system: DU-145
# [6] = system: EKVX
# [7] = system: CAKI-1
# [8] = system: SW-620
# [9] = system: OVCAR-3
# [10] = system: OVCAR-4
# [11] = system: OVCAR-5
# [12] = system: NCI-H226
# [13] = system: HCT-15
# [14] = system: SF-268
# [15] = system: SR
# [16] = system: IGROV-1
# [17] = system: BT-549
# [18] = system: KM12
# [19] = system: UACC-62
# [20] = system: HOP-92
SMILES,GI50 [1],GI50 [2],GI50 [3],GI50 [4],GI50 [5],GI50 [6],GI50 [7],GI50 [8],GI50 [9],GI50 [10],GI50 [11],GI50 [12],GI50 [13],GI50 [14],GI50 [15],GI50 [16],GI50 [17],GI50 [18],GI50 [19],GI50 [20]
Nc1nc(Cl)cc(NCC2(O)CC2)n1,> 100 µM (inactive),> 100 µM (inactive),> 100 µM (inactive),> 100 µM (inactive),> 100 µM (inactive),> 100 µM (inactive),> 100 µM (inactive),> 100 µM (inactive),> 100 µM (inactive),> 100 µM (inactive),> 100 µM (inactive),> 100 µM (inactive),> 100 µM,> 100 µM (inactive),> 100 µM (inactive),> 100 µM (inactive),> 100 µM (inactive),> 100 µM (inactive),> 100 µM (inactive),> 100 µM (inactive)
Cn1c2cn[nH]c(=O)c2c2ccc3ccccc3c21,> 100 µM (inactive),20 µM (inactive),16.1 µM (inactive),44.6 µM (inactive),59.3 µM (inactive),3.6 µM (inactive),42.4 µM (inactive),52.6 µM (inactive),> 100 µM (inactive),58.1 µM (inactive),> 100 µM (inactive),36.1 µM (inactive),23.9 µM,22.6 µM (inactive),35.9 µM (inactive),11.7 µM (inactive),42.9 µM (inactive),> 100 µM (inactive),22.4 µM (inactive),10.6 µM (inactive)
CCN(CC)c1ccc(/C=C/C(=O)c2cc(C(C)(C)C)c(O)c(C(C)(C)C)c2)cc1,6.85 µM (inactive),14.9 µM (inactive),4.9 µM (inactive),27.4 µM (inactive),29 µM (inactive),4.13 µM (inactive),5.14 µM (inactive),4.84 µM (inactive),10.2 µM (inactive),6.76 µM (inactive),5.26 µM (inactive),39.3 µM (inactive),21.1 µM,7.45 µM (inactive),2.8 µM (inactive),64 µM (inactive),8.24 µM (inactive),2.99 µM (inactive),6.81 µM (inactive),> 100 µM (inactive)
NCCCCNC1(c2cc3ccccc3s2)CCCCC1,1.84 µM (inactive),2.62 µM (inactive),3.27 µM (inactive),12.2 µM (inactive),11.1 µM (inactive),14.6 µM (inactive),14.8 µM (inactive),3.54 µM (inactive),2.78 µM (inactive),6.76 µM (inactive),3.77 µM (inactive),16.5 µM (inactive),4.54 µM,6.24 µM (inactive),1.49 µM (inactive),3.08 µM (inactive),11.8 µM (inactive),3.2 µM (inactive),1.91 µM (inactive),5.32 µM (inactive)
CCOC(=O)c1cn(C)nc1N/C(C)=C\C(=O)c1ccccc1,> 100 µM (inactive),> 100 µM (inactive),–,> 100 µM (inactive),> 100 µM (inactive),> 100 µM (inactive),> 100 µM (inactive),> 100 µM (inactive),> 100 µM (inactive),> 100 µM (inactive),> 100 µM (inactive),91.4 µM (inactive),> 100 µM,> 100 µM (inactive),> 100 µM (inactive),> 100 µM (inactive),> 100 µM (inactive),> 100 µM (inactive),> 100 µM (inactive),> 100 µM (inactive)
CCNC(=O)Nc1cccc(C)n1,> 100 µM (inactive),> 100 µM (inactive),68.9 µM (inactive),> 100 µM (inactive),> 100 µM (inactive),15.7 µM (inactive),> 100 µM (inactive),> 100 µM (inactive),> 100 µM (inactive),> 100 µM (inactive),> 100 µM (inactive),> 100 µM (inactive),–,> 100 µM (inactive),> 100 µM (inactive),> 100 µM (inactive),> 100 µM (inactive),> 100 µM (inactive),99.1 µM (inactive),> 100 µM (inactive)
Nc1ccc(-c2nc3ccccc3s2)cc1Cl,> 100 µM (inactive),–,16.6 µM (inactive),> 100 µM (inactive),> 100 µM (inactive),25.2 µM (inactive),> 93.3 µM (inactive),> 100 µM (inactive),< 0.01 µM (active),> 100 µM (inactive),0.0259 µM (active),0.571 µM (active),> 48.8 µM,67 µM (inactive),> 100 µM (inactive),< 0.01 µM (active),> 66.4 µM (inactive),40.3 µM (inactive),> 100 µM (inactive),> 44.5 µM (inactive)
